Earlier results as cited in patent US20250195440A1, “PHARMACEUTICAL FORMULATION COMPRISING GLUCOKINASE ACTIVATOR AND USE THEREOF” (Hua Medicine USA Inc., priority 2023, published 2025).

Key:
[1] = test system: glucose-stimulated GLP-1 secretion; settings: patients with type II diabetes and obesity; Dorzagliatin alone
[2] = test system: esterase enzymes in gastrointestinal tract; settings: with esterase enzymes in gastrointestinal tract

Conversion into active Dorzagliatin [2] | SMILES | Impaired glucose-stimulated GLP-1 secretion [1]
– | CC(C)C[C@@H](C(=O)Nc1ccn(C[C@@H](O)CO)n1)N1CC(Oc2ccccc2Cl)=CC1=O [Dorzagliatin, (S)-2-[4-(2-chloro-phenoxy)-2-oxo-2,5-dihydro-pyrrol-1-yl]-4-methyl-pentanoic acid [1-((R)-2,3-dihydroxy-propyl)-1H-pyrazol-3-yl]-amide] | improved
quickly and completely converted | CC(C)C[C@@H](C(=O)Nc1ccn(C[C@@H](O)COC(=O)c2cccnc2)n1)N1CC(Oc2ccccc2Cl)=CC1=O [compound of formula (I)] | –
